Assay results reported in patent US9926297B2, “Bicyclic AZA compounds as muscarinic M1 receptor and/or M4 receptor agonists” (Heptares Therapeutics Limited, priority 2014, dated 2018).
Read-outs that look alike come from different tables or passages of the source.

What was measured:
[1] = target: T1, human muscarinic M1 receptor (Homo sapiens, UniProt P11229); test: Alphascreen Surefire phospho-ERK1/2 functional assay, M1; format: cell-based; details: for EC50 / % Emax cf. ACh, M1: CHO cells stably expressing human M1; for EC50: phospho-ERK1/2, * = variable results, read-out: pEC50 M1 (converted); for Emax: CHO
T1 sequence (P11229 1-460): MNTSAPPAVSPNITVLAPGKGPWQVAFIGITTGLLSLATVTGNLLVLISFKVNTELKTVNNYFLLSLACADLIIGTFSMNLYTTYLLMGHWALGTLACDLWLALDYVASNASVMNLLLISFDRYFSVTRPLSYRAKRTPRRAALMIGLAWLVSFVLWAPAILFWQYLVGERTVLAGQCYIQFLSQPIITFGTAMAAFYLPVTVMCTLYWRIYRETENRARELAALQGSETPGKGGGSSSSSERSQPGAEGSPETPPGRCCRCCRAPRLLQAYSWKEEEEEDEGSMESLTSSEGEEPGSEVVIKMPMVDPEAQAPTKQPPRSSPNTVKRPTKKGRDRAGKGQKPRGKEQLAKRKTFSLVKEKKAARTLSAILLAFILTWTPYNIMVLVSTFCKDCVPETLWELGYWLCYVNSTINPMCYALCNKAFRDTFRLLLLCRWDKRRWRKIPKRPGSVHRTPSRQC

[2] = target: T2, human muscarinic M4 receptor (Homo sapiens, UniProt P08173); test: Alphascreen Surefire phospho-ERK1/2 functional assay, M4; format: cell-based; details: for EC50 / % Emax cf. ACh, M4: CHO cells stably expressing human M4; for EC50: phospho-ERK1/2, * = variable results, read-out: pEC50 M4 (converted); for Emax: CHO
T2 construct: expressed in transfected cells
T2 sequence (P08173 1-479): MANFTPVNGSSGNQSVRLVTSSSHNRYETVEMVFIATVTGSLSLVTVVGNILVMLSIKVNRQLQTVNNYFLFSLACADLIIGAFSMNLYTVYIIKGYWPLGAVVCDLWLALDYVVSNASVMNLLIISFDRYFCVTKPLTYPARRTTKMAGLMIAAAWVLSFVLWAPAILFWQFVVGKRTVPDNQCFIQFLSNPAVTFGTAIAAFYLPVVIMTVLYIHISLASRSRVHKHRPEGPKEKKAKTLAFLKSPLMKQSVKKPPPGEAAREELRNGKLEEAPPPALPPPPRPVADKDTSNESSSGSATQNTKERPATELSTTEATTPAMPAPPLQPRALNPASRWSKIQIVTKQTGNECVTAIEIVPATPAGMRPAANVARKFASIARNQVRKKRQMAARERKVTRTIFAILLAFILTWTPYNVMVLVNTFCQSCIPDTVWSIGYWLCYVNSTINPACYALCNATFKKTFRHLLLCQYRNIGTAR

[3] = read-out: % Emax cf. ACh, M1, CHO cells stably expressing human M1, relative to ACh
[4] = read-out: % Emax cf. ACh, M4, CHO cells stably expressing human M4, relative to ACh

| SMILES | EC50 [1] [nM] | % Emax cf. ACh, M1 ([1]; relative to ACh) [%] | EC50 [2] [nM] | % Emax cf. ACh, M4 ([2]; relative to ACh) [%] | Emax [1, 3] [%] | Emax [2, 4] [%] | Emax ([1]; read-out: % Emax cf. ACh, M1) [%] | Emax ([2]; read-out: % Emax cf. ACh, M4) [%] |
| --- | --- | --- | --- | --- | --- | --- | --- | --- |
| CCOC(=O)N1CCC2(CC(N3CCC([C@@H]4CCCN4C(=O)OCCF)CC3)C2)C1 (single isomer, unassigned) [2-47 Isomer 2] | 6310 |  | 1000 |  | 45 | 63 |  |  |
| CCn1nccc1C1CCN(C2CC3(CCN(C(=O)OC)C3)C2)CC1 (single isomer, unassigned) [1-46 Isomer 2, methyl 2-[4-(1-ethyl-1H-pyrazol-5-yl)piperidin-1-yl]-6-azaspiro[3.4]octane-6-carboxylate] | > 20000 |  | 200 |  | 35 | 63 |  |  |
| [2H]C([2H])(C)OC(=O)N1CCC2(CC(N3CCC(c4ccnn4C)CC3)C2)C1 (single isomer, unassigned) [1-71 Isomer 2, (1,1-^2H2)ethyl 2-[4-(1-methyl-1H-pyrazol-5-yl)piperidin-1-yl]-6-azaspiro[3.4]octane-6-carboxylate] | > 20000 |  | 100 |  | 6 | 69 |  |  |
| CCOC(=O)N1CCC2(CC(N3CCC(N4C(=O)CCC4=O)CC3)C2)C1 (single isomer, unassigned) [2-112 Isomer 2, ethyl 2-[4-(2,5-dioxopyrrolidin-1-yl)piperidin-1-yl]-6-azaspiro[3.4]octane-6-carboxylate] | > 20000 |  | 251 |  | 7 | 63 |  |  |
| CCOC(=O)N1CCC2(CC(N3CCC(N4C(=O)CC[C@H]4CC)CC3)C2)C1 (single isomer, unassigned) [2-114 Isomer 2] | 126 |  | 7.94 |  | 103 | 114 |  |  |
| CCOC(=O)N1CCC2(CC(N3CCC(c4nnn[nH]4)CC3)C2)C1 (single isomer, unassigned) [1-31 Isomer 2, ethyl 2-[4-(1H-tetrazol-5-yl)piperidin-1-yl]-6-azaspiro[3.4]octane-6-carboxylate] | 2510 |  | 100 |  | 34 | 40 |  |  |
| CCOC(=O)N1CCC2(CC(N3CCC(N4CC[C@@H](F)C4)CC3)C2)C1 (single isomer, unassigned) [2-98 Isomer 2] | > 20000 |  | 126 |  | 10 | 45 |  |  |
| COC(=O)N1CCC2(CC(N3CCC(C4CCCN4C(=O)OC)CC3)C2)C1 (single isomer, unassigned) [2-10 Isomer 2, methyl 2-{4-[1-(methoxycarbonyl)pyrrolidin-2-yl]piperidin-1-yl}-6-azaspiro[3.4]octane-6-carboxylate] | > 20000 |  | 200 |  | 19 | 50 |  |  |
| COC(=O)N1CCC2(CC(N3CCC(c4nc(C)cn4C)CC3)C2)C1 (single isomer, unassigned) [1-11 Isomer 2, methyl 2-[4-(1,4-dimethyl-1H-imidazol-2-yl)piperidin-1-yl]-6-azaspiro[3.4]octane-6-carboxylate] | 1580 |  | 251 |  | 98 | 85 |  |  |
| CCOC(=O)N1CCC2(CC(N3CCC(c4nnn(CC)n4)CC3)C2)C1 (single isomer, unassigned) [1-66 Isomer 2, ethyl 2-[4-(2-ethyl-2H-tetrazol-5-yl)piperidin-1-yl]-6-azaspiro[3.4]octane-6-carboxylate] | > 20000 |  | 251 |  | 14 | 32 |  |  |
| CCOC(=O)N1CCC2(CC(N3CCC(N4C(=O)OC[C@H]4CC)CC3)C2)C1 (single isomer, unassigned) [2-119 Isomer 2] | 2510 |  | 126 |  | 85 | 84 |  |  |
| CCOC(=O)N1CCC2(CC(N3CCC(C)(c4nc(C)no4)CC3)C2)C1 (single isomer, unassigned) [1-41 Isomer 2, ethyl 2-[4-methyl-4-(3-methyl-1,2,4-oxadiazol-5-yl)piperidin-1-yl]-6-azaspiro[3.4]octane-6-carboxylate] | 1000 |  | 251 |  |  |  | 52 | 35 |
| CCOC(=O)N1CCC2(CC(N3CCC([C@@H]4CCCN4CCOC)CC3)C2)C1 (single isomer, unassigned) [2-71 Isomer 2] | 5010 |  | 126 |  | 39 | 56 |  |  |

Continued, in another order:

| EC50 [1] [nM] | % Emax cf. ACh, M1 ([1]; relative to ACh) [%] | EC50 [2] [nM] | % Emax cf. ACh, M4 ([2]; relative to ACh) [%] | Emax [1, 3] [%] | Emax [2, 4] [%] | SMILES | Emax ([1]; read-out: % Emax cf. ACh, M1) [%] | Emax ([2]; read-out: % Emax cf. ACh, M4) [%] |
| --- | --- | --- | --- | --- | --- | --- | --- | --- |
| > 20000 | 11 | 63.1 | 66 |  |  | CCOC(=O)N1CCC2(CC(N3CCC(N4CCCC4c4nnnn4C)CC3)C2)C1 (single isomer, unassigned) [2-130 Isomer 2, ethyl 2-{4-[2-(1-methyl-1H-tetrazol-5-yl)pyrrolidin-1-yl]piperidin-1-yl}-6-azaspiro[3.4]octane-6-carboxylate] |  |  |
| 3160 |  | 631 |  | 76 | 79 | CCOC(=O)N1CCC2(CC(N3CCC(N4CCCC[C@H]4C(=O)NC)CC3)C2)C1 (single isomer, unassigned) [4-18 Isomer 2] |  |  |
| 1000 |  | 158 |  | 59 | 60 | CCOC(=O)N1CCC2(CC(N3CCC(N4C(=O)OC[C@@H]4CC)CC3)C2)C1 (single isomer, unassigned) [2-122 Isomer 2] |  |  |
| 631 |  | 12.6 |  |  |  | CCOC(=O)N1CCC2(CC(N3CCC(N4C[C@H](F)C[C@@H]4CO)CC3)C2)C1 (single isomer, unassigned) [2-136 Isomer 2] |  |  |
| 316 | 42 | 12.6 | 20 |  |  | CCOC(=O)N1CCC2(CC(N3CCC(N4CCCC4c4nnnn4C)CC3)C2)C1 (single isomer, unassigned) [2-130 Isomer 1, ethyl 2-{4-[2-(1-methyl-1H-tetrazol-5-yl)pyrrolidin-1-yl]piperidin-1-yl}-6-azaspiro[3.4]octane-6-carboxylate] |  |  |
| 3980 |  | 316 |  | 32 | 81 | CCOC(=O)N1CCC2(CC(N3CCC(N4CCN(C)C4=O)CC3)C2)C1 (single isomer, unassigned) [2-125 Isomer 2, ethyl 2-[4-(3-methyl-2-oxoimidazolidin-1-yl)piperidin-1-yl]-6-azaspiro[3.4]octane-6-carboxylate] |  |  |
| > 20000 |  | 10 |  | 11 | 72 | CCOC(=O)N1CCC2(CC(N3CCC(N4CCCC4c4ccon4)CC3)C2)C1 (single isomer, unassigned) [2-127 Isomer 2, ethyl 2-{4-[2-(1,2-oxazol-3-yl)pyrrolidin-1-yl]piperidin-1-yl}-6-azaspiro[3.4]octane-6-carboxylate] |  |  |
| 7940 |  | 2510 |  | 39 | 47 | CCOC(=O)N1CCC2(CC(N3CCC(c4cc[nH]c(=O)c4)CC3)C2)C1 (single isomer, unassigned) [3-16 Isomer 2, ethyl 2-[4-(2-oxo-1,2-dihydropyridin-4-yl)piperidin-1-yl]-6-azaspiro[3.4]octane-6-carboxylate] |  |  |
| > 20000 |  | 200 |  | 54 | 55 | CCOC(=O)N1CCC2(CC(N3CCC(N4CCOCC4)CC3)C2)C1 (single isomer, unassigned) [4-11 Isomer 2, ethyl 2-[4-(morpholin-4-yl)piperidin-1-yl]-6-azaspiro[3.4]octane-6-carboxylate] |  |  |
| 79.4 | 69 | 0.631 | 118 |  |  | CCOC(=O)N1CCC2(CC(N3CCC([C@@H]4CCCN4C(=O)N4Cc5cccnc5C4)CC3)C2)C1 (single isomer, unassigned) [2-133 Isomer 2] |  |  |
| 1000 |  | 158 |  | 94 | 105 | CCOC(=O)N1CCC2(CC(N3CCC(N4CCCC[C@@H]4C(=O)NC)CC3)C2)C1 (single isomer, unassigned) [4-16 Isomer 2] |  |  |
| 501 |  | 158 |  | 61 | 108 | CCOC(=O)N1CCC2(CC(N3CCC(N4CCC[C@@H]4c4cccs4)CC3)C2)C1 (single isomer, unassigned) [2-131 Isomer 2] |  |  |
